In assay [1] the test system is human IgE. Briefly: Test using dog (Part 1): IgG antibody against human IgE (ELISA). In kind it is in vivo. Conditions: healthy beagles 8 months old, s.c. 1 mg five times at 2-week intervals, no adjuvant. On the procedure:
The peptide (M4-7-11) was concentration-adjusted to 2 mg/mL with saline, dispensed in an amount of 500 μL, and used as a vaccine. […] The vaccine administration method was subcutaneous administration of 1 mg per dose, which was performed five times at 2-week intervals. Another purpose of this test was to study the frequency of administration of the vaccine.
Dog: 4 healthy beagles (8 months old; 2 males and 2 females) were used.
Vaccine: the M4-7-11 peptide was used alone without being conjugated.
Administration method: 1 mg (500 μl, of 2 mg/mL) per dose was subcutaneously administered five times at 2-week intervals.
Evaluation: serum was collected approximately once per week, and an IgG antibody against human IgE was assayed by ELISA. Since dog IgE nonspecifically reacts with an anti-dog IgG antibody, human IgE having no nonspecific reaction was used in ELISA.
Human IgE (Athens Research And Technology, Inc.; IgE, human Myeloma Plasma) was prepared at 1 μg/mL in an immobilization buffer (0.05 M carbonate buffer, pH 9.6), then added at a concentration of 100 μL/well to an ELISA plate, and left overnight at 4° C. The immobilization plate was washed once with PBS-T (0.05%). […] Then, the measurement was performed using a plate reader (Bio-Rad Laboratories, Inc.; model 680) (dual: measurement: 450 nm, control: 570 nm). […]

In assay [2] the test system is anti-dog IgE monoclonal antibodies. Briefly: Epitope analysis of synthetic IgE CH3 region peptides by ELISA. The settings on record: peptide immobilized 100 ng/well, ELISA with anti-IgE monoclonal antibodies. It is filed as binding. On the procedure: Epitope analysis was conducted on mouse monoclonal antibodies binding to a dog IgE antibody and rat monoclonal antibodies binding to dog and mouse IgE antibodies. Mouse anti-dog IgE antibodies (clone name: CCH3-4, CCH5-5, CCH3-12, CCH3-13, CCH3-14, and CCH3-15) were prepared from mice immunized with the dog IgE CH3 (Cε3) region gene. Also, anti-IgE monoclonal antibodies (clone name: X-1, X-2, CCH3-21, and CCH3-22) were prepared from rats immunized with the dog and mouse IgE CH3 (Cε3) region genes. These antibodies were used as samples to synthesize synthetic peptides (SEQ ID NOs: 2 to 20 and 22 to 26) of the dog and mouse IgE peptide CH3 (Cε3) regions consisting of the sequences shown in FIG. 1-1. The epitope analysis was conducted by ELISA. […] The anti-dog IgE monoclonal antibodies that responded to the peptide were detected using secondary antibodies (anti-mouse IgG HRP (horseradish peroxidase)-labeled antibody for the anti-dog IgE antibodies prepared using mice, and anti-rat IgG HRP-labeled antibody for the anti-dog IgE antibodies prepared using rats).
For orientation: ELISA stands for enzyme-linked immunosorbent assay.

As for “KKTSVSASQWYTKHHNNATT (listed as Mus musculus) [M4-7-11]”, the “level of the IgG antibody against IgE” value in assay [1] is recorded as “confirmed to elevate”; in assay [1] (listed as M4-11-17), “a rise in the level of the IgG antibody against IgE”.

As for “QEKKTSVSASQWYTKHHNNATTSIT (listed as Mus musculus) [MOUSE CH3-4-17-11]”, the “epitope in IgE CH3 region peptide” value in assay [2] is on record as “peptide of an epitope region”.
